Data from article PMC3839116 (Bioorganic & medicinal chemistry, 2012).

What was measured:
[1] = target: T1, spASADH (Streptococcus pneumoniae, UniProt Q8DQ00); test: ASADH enzyme kinetic assay; settings: for fold increase in binding affinity: relative to M11, M9: enzyme form not stated, M14: spASADH; for ligand efficiency: enzyme form not stated
T1 sequence (Q8DQ00 1-358): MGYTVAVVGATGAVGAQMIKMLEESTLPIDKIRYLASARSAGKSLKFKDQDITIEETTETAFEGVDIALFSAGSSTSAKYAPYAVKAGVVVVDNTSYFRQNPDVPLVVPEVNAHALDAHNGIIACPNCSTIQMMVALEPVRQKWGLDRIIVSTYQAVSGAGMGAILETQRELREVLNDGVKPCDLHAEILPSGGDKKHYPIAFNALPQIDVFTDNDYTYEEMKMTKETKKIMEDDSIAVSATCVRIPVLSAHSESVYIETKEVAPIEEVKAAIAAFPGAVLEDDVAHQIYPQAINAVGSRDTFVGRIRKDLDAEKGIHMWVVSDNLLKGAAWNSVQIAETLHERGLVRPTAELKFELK

[2] = target: T2, vcASADH (Vibrio cholerae serotype O1, UniProt Q9KQG2); test: ASADH enzyme kinetic assay
T2 sequence (Q9KQG2 1-370): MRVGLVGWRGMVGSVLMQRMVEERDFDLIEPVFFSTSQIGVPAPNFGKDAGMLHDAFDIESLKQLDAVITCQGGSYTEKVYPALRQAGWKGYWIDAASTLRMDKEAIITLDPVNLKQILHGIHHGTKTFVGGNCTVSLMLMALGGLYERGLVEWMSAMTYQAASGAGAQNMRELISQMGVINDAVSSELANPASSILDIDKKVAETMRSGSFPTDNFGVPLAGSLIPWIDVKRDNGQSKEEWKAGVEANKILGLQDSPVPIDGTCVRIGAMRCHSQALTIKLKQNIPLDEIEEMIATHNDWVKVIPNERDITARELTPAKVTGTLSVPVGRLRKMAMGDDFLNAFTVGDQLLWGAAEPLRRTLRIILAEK

[3] = target: T2, vcASADH; test: More thorough kinetic analysis, inhibitor varied against substrate ASA; format: biochemical; settings: against the substrate ASA

O=c1[nH]c2ccc([N+](=O)[O-])cc2[nH]1 [Compound M14, 5-nitro-2-benzimidazolinone]
fold increase in binding affinity [1]: ~10 fold

COC(=O)c1ccc([N+](=O)[O-])cn1 [Compound M6m, 5-Nitropyridine-2-methylcarboxylate]
Ki [2]: > 20 mM

CCN1C(=O)c2ccc([N+](=O)[O-])cc2C1=O [Compound M11e, 4-Nitro-N-ethylphthalimide]
affinity for spASADH (in words) [1]: no affinity | Ki [2]: > 4 mM | affinity for vcASADH (in words) [2]: no affinity

O=C1NC(=O)c2cc([N+](=O)[O-])c(Cl)cc21 [Compound M9]
ligand efficiency [1]: 0.35 kcal/mol/heavy atom | fold increase in binding affinity [1]: ~10 fold | inhibition type [3]: competitive inhibitors

Cn1c(=O)n(C)c2cc([N+](=O)[O-])ccc21 [Compound M14m, 4-Nitro-N,N-dimethylbenzimidazolinone]
Ki [2]: 0.13 ± 0.02 mM | inhibition type [3]: competitive inhibitors

O=C(O)c1cc(C(=O)O)cc(C(=O)Nc2ccc([N+](=O)[O-])cc2)c1 [Compound M17]
ligand efficiency [1]: 0.22 kcal/mol/heavy atom

COC(=O)c1cc(C(=O)Nc2ccc([N+](=O)[O-])cc2)cc(C(=O)OC)c1 [Compound M17m, 5-[[(4-Nitrophenyl)amino]carbonyl]-1,3-benzenedimethylcarboxylate]
Ki [2]: > 20 mM

O=C(O)c1ccc(C(=O)O)cc1 [1,4-benzenedicarboxylate, reference compound]
affinity for spASADH (in words) [1]: no affinity | affinity for vcASADH (in words) [2]: no affinity

COC(=O)c1ccc(C(=O)OC)nc1 [Compound M7m, Pyridine-2,5-dimethylcarboxylate]
Ki [2]: > 20 mM
